From US4315026A, “Alkylpolyoxysulfinyl and alkylpolythiosulfinyl derivatives of carbamate esters” (priority 1980, dated 1982)
Read-outs that look alike come from different tables or passages of the source.

Legend:
[1] = test system: house flies, Musca domestica; assay: whole plant or invertebrate; assay type: in vivo; conditions: read-out: House flies LD50
Experimental: In another series of tests, stock 1% concentrated solutions of each of the test compounds of Table I below, and of the commercial related carbamate ester insecticides methomyl, carbofuran and oxamyl, were made in acetone, and such solutions were diluted with acetone to a concentration of 0.001-0.8%. House flies were treated topically on the notum by 1 μl of each of the diluted acetone solutions and percent mortality was counted 24 hours after application.

[2] = Mammalian toxicity, oral, Swiss white mice (LD50); assay type: in vivo; conditions: mouse, in vivo, propylene glycol carrier
Experimental: For mice toxicity, the compound was dissolved in propyleneglycol or corn oil as a carrier and all compounds were tested at the level up to 1,000 mg/kg. All of the above noted compounds tested were lower in toxicity as compared with the parent compounds.
Mammalian toxicity was determined against Swiss white mice.

[3] = topical on the notum, 1 μl of 0.001-0.8% acetone solutions, 24 hours, 60° F

SMILES: CSC(C)=NOC(=O)N(C)S(=O)OCCOS(=O)N(C)C(=O)ON=C(C)SC (centres unmarked) [Example I, N,N'-(1,2-ethanedioxysulfinyl)-bis (S-methyl N-methylcarbamoyloxy-thioacetimidate)]
- LD50 [1, 3]: 60 mg/kg
- LD50 [2]: 52 mg/kg

SMILES: CN(C(=O)Oc1cccc2c1OC(C)(C)C2)S(=O)OCCCOS(=O)N(C)C(=O)Oc1cccc2c1OC(C)(C)C2 (centres unmarked) [Example II, N,N'-(1,3-Propanedioxysulfinyl)-bis (2,3-dihydro-2,2-dimethylbenzofuranyl-7 methylcarbamate)]
- LD50 ([1]; topical, 24 h): 17 mg/kg
- LD50 [2]: 92 mg/kg

SMILES: CSC(C)=NOC(=O)N(C)S(=O)OCC1COC(C)(C)O1 (centres unmarked) [Example III, S-methyl N-(2,2-dimethyl-1,3-dioxolane-5-yl-methoxysulfinyl)-N-methylcarbamoyloxythioacetimidate]
- LD50 [1, 3]: 7 mg/kg
- LD50 [2]: 84 mg/kg

SMILES: CSC(C)=NOC(=O)N(C)[S+]([O-])SCCS[S+]([O-])N(C)C(=O)ON=C(C)SC (centres unmarked) [Example VIII, N,N'-(1,2-Ethanedithiosulfinyl)-bis (S-methyl N-methylcarbamoyloxy thioacetimidate)]
- LD50 [1, 3]: 75 mg/kg
- LD50 [2]: 250 mg/kg

SMILES: CN(C(=O)Oc1cccc2c1OC(C)(C)C2)[S+]([O-])SCCS[S+]([O-])N(C)C(=O)Oc1cccc2c1OC(C)(C)C2 (centres unmarked) [IX]
- LD50 ([1]; topical, 24 h): 36 mg/kg
- LD50 [2]: 87 mg/kg

SMILES: CSC(C)=NOC(=O)N(C)S(=O)OC1COC(c2ccccc2)OC1 (centres unmarked) [X, S-Methyl N-(2-phenyl-1,3-dioxane-5-ylmethoxysulfinyl)N-methylcarbamoyloxythioacetimidate]
- LD50 [2]: 85 mg/kg

SMILES: C=CCOCC(COS(=O)N(C)C(=O)ON=C(C)SC)OS(=O)N(C)C(=O)ON=C(C)SC (centres unmarked) [XI, N,N'-(3-Allyloxy-1,2-propanedioxysulfinyl)-bis (S-methyl N-methylcarbamoyloxythioacetimidate)]
- LD50 [1, 3]: 40 mg/kg
- LD50 [2]: 50 to 80 mg/kg

SMILES: C=CCOC(COS(=O)N(C)C(=O)ON=C(C)SC)COS(=O)N(C)C(=O)ON=C(C)SC (centres unmarked) [XII, N,N'-(2-Allyloxy-1,3-propanedioxysulfinyl)-bis (S-methyl N-methylcarbamoyloxythioacetimidate)]
- LD50 [1, 3]: < 50 mg/kg
- LD50 [2]: 88 mg/kg

SMILES: CSC(C)=NOC(=O)N(C)S(=O)OCC(COCc1ccccc1)OS(=O)N(C)C(=O)ON=C(C)SC (centres unmarked) [XIII, N,N'-(3-Benzyloxy-1,2-propanedioxysulfinyl)-bis (S-methyl N-methylcarbamoyloxythioacetimidate)]
- LD50 [1, 3]: < 50 mg/kg
- LD50 [2]: 50 to 100 mg/kg

SMILES: CSC(C)=NOC(=O)N(C)S(=O)OCC(COC(C)C)OS(=O)N(C)C(=O)ON=C(C)SC (centres unmarked) [XIV, N,N'-(3-Isopropoxy-1,2-propanedioxysulfinyl)-bis (S-methyl N-methylcarbamoyloxythioacetimidate)]
- LD50 [1, 3]: 81.5 mg/kg
- LD50 [2]: 170 mg/kg

SMILES: C=CCOCC(COS(=O)N(C)C(=O)Oc1cccc(C)c1)OS(=O)N(C)C(=O)Oc1cccc(C)c1 (centres unmarked) [XIX, N,N'-(3-Allyloxy-1,2-propanedioxysulfinyl)-bis (3-methylphenyl methylcarbamate)]
- LD50 [2]: > 1000 mg/kg

SMILES: CSC(C)=NOC(=O)N(C)S(=O)OCC(COS(=O)N(C)C(=O)ON=C(C)SC)OS(=O)N(C)C(=O)ON=C(C)SC (centres unmarked) [XV, N,N',N",-(1,2,3-Propanetrioxysulfinyl)-tris (S-methyl N-methylcarbamoyloxythioacetimidate)]
- LD50 [2]: 50 to 100 mg/kg

SMILES: CSC(C)=NOC(=O)N(C)S(=O)OCC12OCC3OC(C)(C)OC3C1OC(C)(C)O2 (stereo not drawn) [XVI, S-Methyl N-(2,3,4,5-di-O-isopropylidene-1-α-O-fructopyranosylsulfinyl)-N-methylcarbamoyloxythioacetimidate]
- LD50 [1, 3]: 50 mg/kg
- LD50 [2]: 500 mg/kg

SMILES: CSC(C)=NOC(=O)N(C)S(=O)OC1C2OC(C)(C)OC2COC12COC(C)(C)O2 (centres unmarked) [XVII, S-Methyl N-(1,2,4,5-di-O-isopropylidene-3-O-fructopyranosylsulfinyl)-N-methylcarbamoyloxythioacetimidate]
- LD50 [1, 3]: 115 mg/kg
- LD50 [2]: 1000 mg/kg

SMILES: Cc1cccc(OC(=O)N(C)S(=O)OCC2COC(C)(C)O2)c1 (centres unmarked) [XX, 3-Methylphenyl N-(2,2-dimethyl-1,3-dioxolane-5-ylmethoxysulfinyl)-N-methylcarbamate]
- LD50 [2]: > 1000 mg/kg

SMILES: C=CCOC(COS(=O)N(C)C(=O)Oc1cccc(C)c1)COS(=O)N(C)C(=O)Oc1cccc(C)c1 (centres unmarked) [XXI, N,N'-(2-Allyloxy-1,3-propanedioxysulfinyl)-bis (3-methylphenyl methylcarbamate)]
- LD50 [2]: > 1000 mg/kg

SMILES: Cc1cccc(OC(=O)N(C)S(=O)OCC(COCc2ccccc2)OS(=O)N(C)C(=O)Oc2cccc(C)c2)c1 (centres unmarked) [XXII, N,N'-(3-Benzyloxy-1,2-propanedioxysulfinyl)-bis (3-methylphenyl methylcarbamate)]
- LD50 [2]: > 1000 mg/kg

SMILES: Cc1cccc(OC(=O)N(C)S(=O)OCC(COC(C)C)OS(=O)N(C)C(=O)Oc2cccc(C)c2)c1 (centres unmarked) [XXIII, N,N'-(3-Isopropoxy-1,2-propanedioxysulfinyl)-bis (3-methyl-phenyl methylcarbamate)]
- LD50 [2]: > 1000 mg/kg

SMILES: Cc1cccc(OC(=O)N(C)S(=O)OCC23OCC4OC(C)(C)OC4C2OC(C)(C)O3)c1 (stereo not drawn) [XXIV, 3-Methylphenyl N-(2,3,4,5-di-O-isopropylidene-1-α-O-fructopyranosylsulfinyl)-N-methylcarbamate]
- LD50 [2]: > 1000 mg/kg

SMILES: C=CCOCC(COS(=O)N(C)C(=O)ON=C(SC)C(=O)N(C)C)OS(=O)N(C)C(=O)ON=C(SC)C(=O)N(C)C (centres unmarked) [XXIX, N,N'-(3-Allyloxy-1,2-propanedioxysulfinyl)-bis[S-methyl N-methylcarbamoyloxy-2-(N',N'-dimethylamino)-2-oxoethanimidothioate]]
- LD50 [1, 3]: 215 mg/kg
- LD50 [2]: 12.5 to 25 mg/kg

SMILES: Cc1cccc(OC(=O)N(C)S(=O)OC2C3OC(C)(C)OC3COC23COC(C)(C)O3)c1 (centres unmarked) [XXV, 3-Methylphenyl N-(1,2,4,5-di-O-isopropylidene-3-O-fructopyranosylsulfinyl)-N-methylcarbamate]
- LD50 [2]: > 1000 mg/kg

SMILES: Cc1cccc(OC(=O)N(C)S(=O)OC2C(C3COC(C)(C)O3)OC3OC(C)(C)OC32)c1 (centres unmarked) [XXVI, 3-Methylphenyl N-(1,2,5,6-di-O-isopropylidene-3-O-glucofuranosylsulfinyl)-N-methylcarbamate]
- LD50 [2]: > 1000 mg/kg

SMILES: CSC(=NOC(=O)N(C)S(=O)OC1COC(c2ccccc2)OC1)C(=O)N(C)C (centres unmarked) [XXVII, S-Methyl N-(2-phenyl-1,3-dioxane-5-ylmethoxysulfinyl)-N-methylcarbamoyloxy-2-(N',N'-dimethylamino)-2-oxoethanimidothioate]
- LD50 [1, 3]: 161 mg/kg
- LD50 [2]: 25 mg/kg

SMILES: CSC(=NOC(=O)N(C)S(=O)OCC1COC(C)(C)O1)C(=O)N(C)C (centres unmarked) [XXVIII, S-Methyl N-(2,2-dimethyl-1,3-dioxolane-5-ylmethoxysulfinyl)-N-methylcarbamoyloxy-2-(N'N'-dimethylamino)-2-oxoethanimidothioate]
- LD50 [1, 3]: 2.6 mg/kg
- LD50 [2]: 31 mg/kg

SMILES: CSC(=NOC(=O)N(C)S(=O)OCC(COCc1ccccc1)OS(=O)N(C)C(=O)ON=C(SC)C(=O)N(C)C)C(=O)N(C)C (centres unmarked) [XXXI, N,N'-(3-Benzyloxy-1,2-propanedioxysulfinyl)-bis-[S-methylcarbamoyloxy-2-(N',N'-dimethylamino)-2-oxoethanimidothioate]]
- LD50 [2]: 12.5 to 25 mg/kg

SMILES: CSC(=NOC(=O)N(C)S(=O)OCC(COC(C)C)OS(=O)N(C)C(=O)ON=C(SC)C(=O)N(C)C)C(=O)N(C)C (centres unmarked) [XXXII, N,N'-(3-Isopropoxy-1,2-propanedioxysulfinyl)-bis[S-methyl N-methylcarbamoyloxy-2-(N',N'-dimethylamino)-2-oxoethanimidothioate]]
- LD50 [2]: 16 mg/kg

SMILES: CC(C)OCC(COS(=O)N(C)C(=O)Oc1cccc2ccccc12)OS(=O)N(C)C(=O)Oc1cccc2ccccc12 (centres unmarked) [XXXIX, N,N'-(3-Isopropoxy-1,2-propanedioxysulfinyl)-bis(1-naphthyl methylcarbamate)]
- LD50 [2]: > 1000 mg/kg

SMILES: C=CCOCC(COS(=O)N(C)C(=O)Oc1cccc2ccccc12)OS(=O)N(C)C(=O)Oc1cccc2ccccc12 (centres unmarked) [XXXVI, N,N'-(3-Allyloxy-1,2-propanedioxysulfinyl)-bis(1-naphthyl methylcarbamate)]
- LD50 [2]: > 1000 mg/kg

SMILES: C=CCOC(COS(=O)N(C)C(=O)Oc1cccc2ccccc12)COS(=O)N(C)C(=O)Oc1cccc2ccccc12 (centres unmarked) [XXXVII, N,N'-(2-Allyloxy-1,3-propanedioxysulfinyl)-bis(1-naphthyl methylcarbamate)]
- LD50 [2]: > 1000 mg/kg

SMILES: CN(C(=O)Oc1cccc2ccccc12)S(=O)OCC(COCc1ccccc1)OS(=O)N(C)C(=O)Oc1cccc2ccccc12 (centres unmarked) [XXXVIII, N,N'-(3-Benzyloxy-1,2-propanedioxysulfinyl)-bis(1-naphthyl methylcarbamate)]
- LD50 [2]: > 1000 mg/kg

SMILES: CN(C(=O)Oc1cccc2ccccc12)S(=O)OCC(COS(=O)N(C)C(=O)Oc1cccc2ccccc12)OS(=O)N(C)C(=O)Oc1cccc2ccccc12 (centres unmarked) [XXXX, N,N',N"-(1,2,3-Propanetrioxysulfinyl)-tris-(1-naphthyl methylcarbamate)]
- LD50 [2]: > 1000 mg/kg

SMILES: CN(C(=O)Oc1cccc2ccccc12)S(=O)OCC12OCC3OC(C)(C)OC3C1OC(C)(C)O2 (stereo not drawn) [XXXXI, 1-Naphthyl N-(2,3,4,5-di-O-isopropylidene-1-α-O-fructopyranosylsulfinyl)-N-methylcarbamate]
- LD50 [2]: > 1000 mg/kg

SMILES: CN(C(=O)Oc1cccc2ccccc12)S(=O)OC1C2OC(C)(C)OC2COC12COC(C)(C)O2 (stereo not drawn) [XXXXII, 1-Naphthyl N-(1,2,4,5-di-O-isopropylidene-3-α-O-fructopyranosylsulfinyl)-N-methylcarbamate]
- LD50 [2]: > 1000 mg/kg

SMILES: CC(C)Oc1ccccc1OC(=O)N(C)S(=O)OCC(COS(=O)N(C)C(=O)Oc1ccccc1OC(C)C)OS(=O)N(C)C(=O)Oc1ccccc1OC(C)C (centres unmarked) [XXXXIII, N,N',N"(1,2,3-Propanetrioxysulfinyl)-tris-(2-isopropoxyphenyl methylcarbamate)]
- LD50 [2]: > 1000 mg/kg

SMILES: CC(C)Oc1ccccc1OC(=O)N(C)S(=O)OCC12OCC3OC(C)(C)OC3C1OC(C)(C)O2 (stereo not drawn) [XXXXIV, 2-Isopropoxyphenyl N-(2,3,4,5-di-O-isopropylidene-1-α-O-fructopyranosylsulfinyl)-N-methylcarbamate]
- LD50 [2]: > 1000 mg/kg

SMILES: CNC(=O)ON=C(C)SC [methomyl, reference compound]
- LD50 [1, 3]: 3.7 mg/kg
